# According to US5534554A, “Sucrose ester-C20 to C28 alcohol formulations” (priority 1994, dated 1996):
# Read-outs that look alike come from different tables or passages of the source.
# What was measured:
# viruses = settings: cited from earlier work
# [1] = literature; cited from earlier work
# wild-type HSV-2 = experiment: Plaque inhibition, wild-type HSV-2 in Vero cells; format: cell-based; settings: FIG. 7, Panel A
# [2] = test system: acyclovir-resistant HSV-2; experiment: Plaque inhibition, acyclovir-resistant HSV-2 in Vero cells; format: cell-based; settings: FIG. 7, Panel B
# HIV-1 = HIV-1 replication in PHA/IL-2-stimulated human peripheral blood mononuclear cells (p24 ELISA); format: cell-based; settings: n-docosanol/Pluronic, FIG. 13
# Description: Human peripheral blood mononuclear cells were cultured in medium containing 1 μg/ml PHA plus 5 units/ml IL-2 alone or also containing 100 μg/ml PFA, […] F-68 control vehicle contained in the high dose of n-docosanol/Pluronic. After overnight incubation, the cultures were inoculated with HIV-1 at a multiplicity of infection of 1 virion/cell. After 24 hours incubation at 37° C., the cultures were washed and inoculated with fresh medium containing PHA and IL-2, but lacking inhibitor. Replication of HIV-1 was determined 4 days later by quantitation of viral antigens by a p24-specific ELISA for HIV-1.
# Our initial studies on HIV were conducted in collaboration with a U.S. National Institutes of Health laboratory and one of several experiments of this type is summarized in FIG. 13. Normal human peripheral blood mononuclear cells were activated with […] PHA plus 5 units/ml of IL-2 in medium alone or in the presence of the n-docosanol, Pluronic F-68 control vehicle, or phosphonoformic acid (PFA). The next day, the cultures were inoculated with HIV-1 and examined 4 days later for evidence of viral replication by detection of the p24 viral antigen. […] The dose response of HIV-1 to n-docosanol indicates an ED 50 of about 6-9 mM.
# herpes [3] = settings: literature, animal studies; cited from earlier work
# herpes [4] = settings: literature, tissue culture; cited from earlier work
structure (smiles),measurement,setting,value
CCCCCCCCCCO [Formulation C-10],antiviral activity,viruses; literature,significant antiviral activity
same,cytotoxic and hemolytic effects,[1],exhibited cytotoxic and hemolytic effects
CCCCCCCCCCCCO [Formulation C-12],antiviral activity,viruses; literature,significant antiviral activity
same,cytotoxic and hemolytic effects,[1],exhibited cytotoxic and hemolytic effects
"Nc1nc2c(ncn2COCCO)c(=O)[nH]1 [acyclovir, reference compound]",inhibition of plaque formation,wild-type HSV-2,inhibit plaque formation by wild type HSV-2 equally
same,inhibition of acyclovir-resistant HSV-2 mutant,[2],fails to respond
OCc1ccccc1 [benzyl alcohol],antiviral activity,"viruses; under certain circumstances, U.S. Pat. No. 4,200,655",some antiviral activity
"O=C(O)P(=O)(O)O [phosphonoformic acid, reference compound]",inhibition of HIV-1 replication,HIV-1,very potent antiviral compound
CCCCCCCCCCCCCCCCCCCCCCCCCCCCCCO [triacontanol],anti-herpes activity,herpes [3],active as an anti-herpes agent
same,direct antiviral activity,herpes [4],lacked direct antiviral activity
